From the OligoGym collection come the findings set out here.

Oligonucleotides are written 5' to 3', each unit as a sugar letter and its base; * is a phosphorothioate linkage, no mark a phosphodiester; rarer units and linkages stand in square brackets, end groups in braces. Plain capitals give the bases only. d = 2'-deoxy (DNA); r = 2'-OH (RNA)
Note: test concentration or dose not given here.

This series in a line: reporter assay of Huesken 2005. The note with it: siRNA.
“sense rUrGrGrCrUrCrUrGrUrCrUrCrUrCrUrGrCrCrAdTdT / antisense rUrGrGrCrArGrArGrArGrArCrArGrArGrCrCrAdCdC” returned a normalised inhibition (eCFP-eYFP dual reporter) of 76.5%.

Take “sense rCrArGrGrGrGrCrArGrCrGrGrGrArGrArGrArGdTdT / antisense rCrUrCrUrCrUrCrCrCrGrCrUrGrCrCrCrCrUrGdAdA”: the normalised inhibition (eCFP-eYFP dual reporter) was found to be 66.2%.

“sense rGrCrCrUrUrCrArUrCrCrArCrCrUrUrCrCrCrUdTdT / antisense rArGrGrGrArArGrGrUrGrGrArUrGrArArGrGrCdAdG” showed a normalised inhibition (eCFP-eYFP dual reporter) of 85.7%.

Turning to “sense rCrCrUrUrGrGrArArArCrGrArArCrCrArArGrCdTdT / antisense rGrCrUrUrGrGrUrUrCrGrUrUrUrCrCrArArGrGdGdA”, the normalised inhibition (eCFP-eYFP dual reporter) stood at 85.8%.

In turn, “sense rCrCrArGrGrGrGrArCrArGrGrCrArGrCrArGrGdTdT / antisense rCrCrUrGrCrUrGrCrCrUrGrUrCrCrCrCrUrGrGdGdC” registered a normalised inhibition (eCFP-eYFP dual reporter) of 45.6%.

Substance “sense rGrArUrUrUrArGrGrCrUrUrGrArGrGrGrArGrAdTdT / antisense rUrCrUrCrCrCrUrCrArArGrCrCrUrArArArUrCdCdA” yielded a normalised inhibition (eCFP-eYFP dual reporter) of 90.8%.

With “sense rUrUrGrCrUrCrUrCrUrGrGrArGrUrCrUrCrCrCdTdT / antisense rGrGrGrArGrArCrUrCrCrArGrArGrArGrCrArAdGdA”, the normalised inhibition (eCFP-eYFP dual reporter) was 58.4%.

Substance “sense rArCrCrCrUrUrUrArCrArGrArArCrArCrCrCrAdTdT / antisense rUrGrGrGrUrGrUrUrCrUrGrUrArArArGrGrGrUdGdG” registered a normalised inhibition (eCFP-eYFP dual reporter) of 86.5%.

Regarding “sense rCrGrUrUrUrCrArUrUrGrUrUrCrCrUrGrUrGrAdTdT / antisense rUrCrArCrArGrGrArArCrArArUrGrArArArCrGdAdC”, the normalised inhibition (eCFP-eYFP dual reporter) was 54.2%.

“sense rGrUrCrGrUrUrCrGrUrGrGrUrCrGrUrUrUrCrAdTdT / antisense rUrGrArArArCrGrArCrCrArCrGrArArCrGrArCdCdA” had a normalised inhibition (eCFP-eYFP dual reporter) of 39.3%.

Take “sense rArGrArArCrArCrCrCrArGrGrArArUrUrCrUrUdTdT / antisense rArArGrArArUrUrCrCrUrGrGrGrUrGrUrUrCrUdGdT”: the normalised inhibition (eCFP-eYFP dual reporter) worked out at 84.5%.

“sense rGrArUrUrCrCrArCrCrArGrUrUrUrArGrArArGdTdT / antisense rCrUrUrCrUrArArArCrUrGrGrUrGrGrArArUrCdTdG” gave a normalised inhibition (eCFP-eYFP dual reporter) of 84%.

In the case of “sense rUrGrArGrArCrUrUrCrCrArUrCrUrCrUrArGrCdTdT / antisense rGrCrUrArGrArGrArUrGrGrArArGrUrCrUrCrAdGdA”, the normalised inhibition (eCFP-eYFP dual reporter) was determined as 32.9%.

With “sense rUrUrGrCrCrUrCrCrCrUrUrGrArGrGrCrGrUrCdTdT / antisense rGrArCrGrCrCrUrCrArArGrGrGrArGrGrCrArAdTdC”, the normalised inhibition (eCFP-eYFP dual reporter) stood at 37.3%.

“sense rArCrUrGrArUrGrUrUrCrCrUrUrGrUrGrGrArCdTdT / antisense rGrUrCrCrArCrArArGrGrArArCrArUrCrArGrUdGdA” had a normalised inhibition (eCFP-eYFP dual reporter) of 55.2%.

“sense rArGrCrGrGrGrArGrArGrArGrCrArArCrArGrGdTdT / antisense rCrCrUrGrUrUrGrCrUrCrUrCrUrCrCrCrGrCrUdGdC” showed a normalised inhibition (eCFP-eYFP dual reporter) of 43.5%.

The substance “sense rArCrUrCrCrUrUrCrCrUrUrCrUrCrUrGrArArGdTdT / antisense rCrUrUrCrArGrArGrArArGrGrArArGrGrArGrUdCdC” came in with a normalised inhibition (eCFP-eYFP dual reporter) of 50.7%.

The substance “sense rArGrGrUrCrArCrCrArGrArGrUrGrGrArArArCdTdT / antisense rGrUrUrUrCrCrArCrUrCrUrGrGrUrGrArCrCrUdTdT” gave a normalised inhibition (eCFP-eYFP dual reporter) of 94.3%.

“sense rCrUrCrUrCrUrGrCrCrArCrArUrGrGrUrGrUrGdTdT / antisense rCrArCrArCrCrArUrGrUrGrGrCrArGrArGrArGdAdC” showed a normalised inhibition (eCFP-eYFP dual reporter) of 46.7%.
